From publication PMC5766581, “NF-κB inducing kinase is a therapeutic target for systemic lupus erythematosus” (Nature Communications, 2018)
“And” between values parts separate entries of the source, which are not always exact repeats. Identical values can stand only once.

Tests used:
Test in all cases: SelectScreen kinase panel
Format in all cases: biochemical
[1] = target: T1, MSK1 (Homo sapiens, UniProt O75582)
T1 construct: purchased Invitrogen / ThermoFisher SelectScreen
Experimental: (§1) The ability of NIK to catalyze the hydrolysis of adenosine-5′-triphosphate (ATP) was monitored using the Transcreener ADP (adenosine-5′-diphosphate) assay (Bell Brook Labs, Fitchburg, WI). Purified human NIK kinase domain (a.a. 340–694) (0.5 nM) or mouse NIK kinase domain (a.a. 329–675) (1 nM) derived from a baculovirus-infected insect cell expression system was incubated with test compounds for 0.5–2 h in 50 mM HEPES buffer (pH 7.2) containing 10 mM MgCl2, 2 mM dithiothreitol, 10 μM ATP, 0.01% Triton X-100, 0.1% gamma-globulins from bovine blood, 1% dimethylsulfoxide (DMSO), 7 μg/mL ADP antibody and 5 nM ADP-MR121 633 tracer. Reactions were quenched by the addition of 20 mM EDTA and 0.01% Brij 35. The tracer bound to the antibody was displaced by the ADP generated during the NIK reaction, which caused a decrease in fluorescence polarization that was measured by laser excitation at 633 nm with a Fluorescence Correlation Spectroscopy Plus reader (Evotec AG). Equilibrium dissociation constant (Ki) values for NIK inhibitors are calculated from plots of activity vs. inhibitor concentration using Morrison’s quadratic equation that accounts for the potential of tight binding, and by also applying the conversion factor that accounted for competitive inhibition and the concentration of substrate used in the assay relative to its Michaelis constant (Km). The Ki values with hPKD1 (PKCμ) were determined using the same assay conditions as for NIK. Ki measurements for hKHS1 and hLRRK2, as well as broad kinase selectivity profiling for SMI1, were carried out by Invitrogen using their SelectScreen kinase assay panel (ThermoFisher Scientific, Madison, WI). The vendor offered two types of kinase activity assays, a peptide phosphorylation assay (Z′-LYTE) and an ADP quantitation assay (Adapta), as well as one type of kinase ATP site competitive binding assay (LanthaScreen). See vendor web site for technology and protocol details for each specific kinase assay.
(§2) The average % Inhibition of each kinase is reported (Supplementary Table 1).

[2] = target: T2, MARK1 (Homo sapiens, UniProt Q9P0L2)
T2 construct: purchased Invitrogen / ThermoFisher SelectScreen
Experimental: as §1, §2

[3] = target: T3, IRR (Homo sapiens, UniProt P14616)
T3 construct: purchased Invitrogen / ThermoFisher SelectScreen
Experimental: as §1, §2

[4] = target: T4, FGFR1 (Homo sapiens, UniProt P11362)
T4 construct: purchased Invitrogen / ThermoFisher SelectScreen
Experimental: as §1, §2

[5] = target: T5, CDK9/cyclinT1 (Homo sapiens, UniProt P50750)
T5 construct: purchased Invitrogen / ThermoFisher SelectScreen
Experimental: as §1, §2

[6] = target: T6, PRKAA1 (Homo sapiens, UniProt Q13131)
T6 construct: purchased Invitrogen / ThermoFisher SelectScreen
Experimental: as §1, §2

[7] = target: T7, RSK3 (Homo sapiens, UniProt Q15349)
T7 construct: purchased Invitrogen / ThermoFisher SelectScreen
Experimental: as §1, §2

[8] = target: T8, P38_gamma (Homo sapiens, UniProt P53778)
T8 construct: purchased Invitrogen / ThermoFisher SelectScreen
Experimental: as §1, §2

[9] = target: T9, CHK1 (Homo sapiens, UniProt O14757)
T9 construct: purchased Invitrogen / ThermoFisher SelectScreen
Experimental: as §1, §2

[10] = target: T10, SGK3 (Homo sapiens, UniProt Q96BR1)
T10 construct: purchased Invitrogen / ThermoFisher SelectScreen
Experimental: as §1, §2

[11] = target: T11, DCAMKL2 (Homo sapiens, UniProt Q8N568)
T11 construct: purchased Invitrogen / ThermoFisher SelectScreen
Experimental: as §1, §2

[12] = target: T12, SGK2 (Homo sapiens, UniProt Q9HBY8)
T12 construct: purchased Invitrogen / ThermoFisher SelectScreen
T12 sequence (Q9HBY8 whole entry): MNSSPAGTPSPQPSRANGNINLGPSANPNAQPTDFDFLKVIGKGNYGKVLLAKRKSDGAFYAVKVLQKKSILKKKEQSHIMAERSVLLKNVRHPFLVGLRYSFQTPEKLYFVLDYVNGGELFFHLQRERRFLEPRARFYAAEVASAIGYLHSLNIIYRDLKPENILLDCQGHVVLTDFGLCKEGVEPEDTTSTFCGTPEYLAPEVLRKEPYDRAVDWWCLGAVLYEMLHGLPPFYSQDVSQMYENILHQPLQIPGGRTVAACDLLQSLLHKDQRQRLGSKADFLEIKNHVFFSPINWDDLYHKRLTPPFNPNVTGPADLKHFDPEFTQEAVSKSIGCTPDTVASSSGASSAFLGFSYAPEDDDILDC
Experimental: as §1, §2

[13] = target: T13, InsR (Homo sapiens, UniProt P06213)
T13 construct: purchased Invitrogen / ThermoFisher SelectScreen
Experimental: as §1, §2

[14] = target: T14, MKNK1 (Homo sapiens, UniProt Q9BUB5)
T14 construct: purchased Invitrogen / ThermoFisher SelectScreen
Experimental: as §1, §2

[15] = target: T15, GSK3_alpha (Homo sapiens, UniProt P49840)
T15 construct: purchased Invitrogen / ThermoFisher SelectScreen
Experimental: as §1, §2

[16] = target: T16, NEK9 (Homo sapiens, UniProt Q8TD19)
T16 construct: purchased Invitrogen / ThermoFisher SelectScreen
Experimental: as §1, §2

[17] = target: T17, Aurora_B (Homo sapiens, UniProt Q96GD4)
T17 construct: purchased Invitrogen / ThermoFisher SelectScreen
Experimental: as §1, §2

[18] = target: T18, ErbB2 (Homo sapiens, UniProt P04626)
T18 construct: purchased Invitrogen / ThermoFisher SelectScreen
Experimental: as §1, §2

[19] = target: T19, Srm (Homo sapiens, UniProt Q9H3Y6)
T19 construct: purchased Invitrogen / ThermoFisher SelectScreen
Experimental: as §1, §2

[20] = target: T20, BrSK1 (Homo sapiens, UniProt Q8TDC3)
T20 construct: purchased Invitrogen / ThermoFisher SelectScreen
Experimental: as §1, §2

[21] = target: T21, EphA7 (Homo sapiens, UniProt Q15375)
T21 construct: purchased Invitrogen / ThermoFisher SelectScreen
T21 sequence (Q15375 28-998): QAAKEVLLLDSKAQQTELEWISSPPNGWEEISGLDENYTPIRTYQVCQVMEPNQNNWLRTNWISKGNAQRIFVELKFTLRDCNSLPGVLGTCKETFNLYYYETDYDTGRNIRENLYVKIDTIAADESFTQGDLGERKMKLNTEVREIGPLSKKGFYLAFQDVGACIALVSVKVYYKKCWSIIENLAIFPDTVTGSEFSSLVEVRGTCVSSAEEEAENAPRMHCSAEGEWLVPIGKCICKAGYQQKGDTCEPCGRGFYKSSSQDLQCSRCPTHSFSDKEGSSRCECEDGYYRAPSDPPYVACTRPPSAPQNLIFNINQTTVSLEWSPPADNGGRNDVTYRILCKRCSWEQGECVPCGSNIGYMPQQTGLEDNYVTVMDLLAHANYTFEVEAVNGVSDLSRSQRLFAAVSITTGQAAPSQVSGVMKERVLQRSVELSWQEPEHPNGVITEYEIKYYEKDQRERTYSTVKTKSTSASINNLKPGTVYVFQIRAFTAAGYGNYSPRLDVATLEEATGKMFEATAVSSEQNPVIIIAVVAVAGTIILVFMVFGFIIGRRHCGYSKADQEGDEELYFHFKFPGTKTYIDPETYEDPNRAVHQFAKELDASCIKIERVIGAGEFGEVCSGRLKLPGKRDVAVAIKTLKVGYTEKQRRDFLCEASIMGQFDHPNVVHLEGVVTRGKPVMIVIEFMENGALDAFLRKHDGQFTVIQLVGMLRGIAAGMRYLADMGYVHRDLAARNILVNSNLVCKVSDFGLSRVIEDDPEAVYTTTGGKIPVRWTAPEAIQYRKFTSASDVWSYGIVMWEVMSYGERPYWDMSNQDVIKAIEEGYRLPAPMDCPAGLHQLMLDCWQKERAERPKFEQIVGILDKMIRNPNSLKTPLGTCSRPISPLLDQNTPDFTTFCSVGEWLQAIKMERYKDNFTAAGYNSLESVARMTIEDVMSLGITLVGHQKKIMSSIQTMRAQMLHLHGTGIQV
Experimental: as §1, §2

[22] = target: T22, KHS1 (Homo sapiens, UniProt Q9Y4K4); details: NIK SMI1 1 µM; ATP Km app
T22 construct: purchased Invitrogen / ThermoFisher SelectScreen
T22 sequence (Q9Y4K4 whole entry): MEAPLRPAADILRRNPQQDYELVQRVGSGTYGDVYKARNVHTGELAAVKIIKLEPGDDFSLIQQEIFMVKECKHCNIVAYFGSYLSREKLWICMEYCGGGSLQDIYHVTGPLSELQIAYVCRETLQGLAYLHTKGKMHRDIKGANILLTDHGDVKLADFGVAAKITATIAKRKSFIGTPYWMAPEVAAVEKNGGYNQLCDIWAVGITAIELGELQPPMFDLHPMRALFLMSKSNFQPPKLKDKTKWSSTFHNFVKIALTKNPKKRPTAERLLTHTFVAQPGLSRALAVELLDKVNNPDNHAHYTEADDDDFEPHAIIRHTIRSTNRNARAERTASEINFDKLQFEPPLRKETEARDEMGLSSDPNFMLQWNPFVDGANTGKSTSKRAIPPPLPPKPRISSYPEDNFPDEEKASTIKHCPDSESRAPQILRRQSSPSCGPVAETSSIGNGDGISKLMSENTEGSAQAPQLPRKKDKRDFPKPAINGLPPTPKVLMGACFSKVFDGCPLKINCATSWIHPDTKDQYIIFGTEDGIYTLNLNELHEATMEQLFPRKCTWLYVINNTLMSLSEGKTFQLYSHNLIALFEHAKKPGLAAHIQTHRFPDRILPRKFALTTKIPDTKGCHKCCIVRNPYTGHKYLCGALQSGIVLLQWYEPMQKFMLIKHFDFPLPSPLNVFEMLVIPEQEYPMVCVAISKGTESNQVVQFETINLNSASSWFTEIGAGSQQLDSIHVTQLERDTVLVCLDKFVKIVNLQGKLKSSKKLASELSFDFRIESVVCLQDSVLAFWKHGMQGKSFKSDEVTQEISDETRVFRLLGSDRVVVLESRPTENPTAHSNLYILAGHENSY
Experimental: as §1, §2

[23] = target: T23, CDK7/cyclinH (Homo sapiens, UniProt P50613)
T23 construct: purchased Invitrogen / ThermoFisher SelectScreen
Experimental: as §1, §2

[24] = target: T24, PASK (Homo sapiens, UniProt Q96RG2)
T24 construct: purchased Invitrogen / ThermoFisher SelectScreen
Experimental: as §1, §2

[25] = target: T25, EphB1 (Homo sapiens, UniProt P54762)
T25 construct: purchased Invitrogen / ThermoFisher SelectScreen
Experimental: as §1, §2

[26] = target: T26, Brk (Homo sapiens, UniProt Q13882)
T26 construct: purchased Invitrogen / ThermoFisher SelectScreen
Experimental: as §1, §2

[27] = target: T27, NEK1 (Homo sapiens, UniProt Q96PY6)
T27 construct: purchased Invitrogen / ThermoFisher SelectScreen
Experimental: as §1, §2

[28] = target: T28, CK2_alpha1 (Homo sapiens, UniProt P68400)
T28 construct: purchased Invitrogen / ThermoFisher SelectScreen
T28 sequence (P68400 whole entry): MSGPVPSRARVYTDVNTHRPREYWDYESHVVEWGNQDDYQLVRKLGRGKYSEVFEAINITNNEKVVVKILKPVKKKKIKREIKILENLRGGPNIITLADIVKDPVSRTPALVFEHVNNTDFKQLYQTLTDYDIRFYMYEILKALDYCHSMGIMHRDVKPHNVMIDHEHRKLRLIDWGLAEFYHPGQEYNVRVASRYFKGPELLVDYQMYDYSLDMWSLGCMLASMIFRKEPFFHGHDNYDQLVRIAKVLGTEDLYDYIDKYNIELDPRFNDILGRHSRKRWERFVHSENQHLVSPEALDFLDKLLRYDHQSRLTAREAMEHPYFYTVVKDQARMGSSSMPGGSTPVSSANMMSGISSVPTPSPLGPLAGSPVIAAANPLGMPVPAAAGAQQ
Experimental: as §1, §2

[29] = target: T29, Syk (Homo sapiens, UniProt P43405)
T29 construct: purchased Invitrogen / ThermoFisher SelectScreen
Experimental: as §1, §2

[30] = target: T30, LRRK2 (Homo sapiens, UniProt Q5S007); details: NIK SMI1 1 µM; ATP Km app
T30 construct: purchased Invitrogen / ThermoFisher SelectScreen
T30 sequence (Q5S007 whole entry): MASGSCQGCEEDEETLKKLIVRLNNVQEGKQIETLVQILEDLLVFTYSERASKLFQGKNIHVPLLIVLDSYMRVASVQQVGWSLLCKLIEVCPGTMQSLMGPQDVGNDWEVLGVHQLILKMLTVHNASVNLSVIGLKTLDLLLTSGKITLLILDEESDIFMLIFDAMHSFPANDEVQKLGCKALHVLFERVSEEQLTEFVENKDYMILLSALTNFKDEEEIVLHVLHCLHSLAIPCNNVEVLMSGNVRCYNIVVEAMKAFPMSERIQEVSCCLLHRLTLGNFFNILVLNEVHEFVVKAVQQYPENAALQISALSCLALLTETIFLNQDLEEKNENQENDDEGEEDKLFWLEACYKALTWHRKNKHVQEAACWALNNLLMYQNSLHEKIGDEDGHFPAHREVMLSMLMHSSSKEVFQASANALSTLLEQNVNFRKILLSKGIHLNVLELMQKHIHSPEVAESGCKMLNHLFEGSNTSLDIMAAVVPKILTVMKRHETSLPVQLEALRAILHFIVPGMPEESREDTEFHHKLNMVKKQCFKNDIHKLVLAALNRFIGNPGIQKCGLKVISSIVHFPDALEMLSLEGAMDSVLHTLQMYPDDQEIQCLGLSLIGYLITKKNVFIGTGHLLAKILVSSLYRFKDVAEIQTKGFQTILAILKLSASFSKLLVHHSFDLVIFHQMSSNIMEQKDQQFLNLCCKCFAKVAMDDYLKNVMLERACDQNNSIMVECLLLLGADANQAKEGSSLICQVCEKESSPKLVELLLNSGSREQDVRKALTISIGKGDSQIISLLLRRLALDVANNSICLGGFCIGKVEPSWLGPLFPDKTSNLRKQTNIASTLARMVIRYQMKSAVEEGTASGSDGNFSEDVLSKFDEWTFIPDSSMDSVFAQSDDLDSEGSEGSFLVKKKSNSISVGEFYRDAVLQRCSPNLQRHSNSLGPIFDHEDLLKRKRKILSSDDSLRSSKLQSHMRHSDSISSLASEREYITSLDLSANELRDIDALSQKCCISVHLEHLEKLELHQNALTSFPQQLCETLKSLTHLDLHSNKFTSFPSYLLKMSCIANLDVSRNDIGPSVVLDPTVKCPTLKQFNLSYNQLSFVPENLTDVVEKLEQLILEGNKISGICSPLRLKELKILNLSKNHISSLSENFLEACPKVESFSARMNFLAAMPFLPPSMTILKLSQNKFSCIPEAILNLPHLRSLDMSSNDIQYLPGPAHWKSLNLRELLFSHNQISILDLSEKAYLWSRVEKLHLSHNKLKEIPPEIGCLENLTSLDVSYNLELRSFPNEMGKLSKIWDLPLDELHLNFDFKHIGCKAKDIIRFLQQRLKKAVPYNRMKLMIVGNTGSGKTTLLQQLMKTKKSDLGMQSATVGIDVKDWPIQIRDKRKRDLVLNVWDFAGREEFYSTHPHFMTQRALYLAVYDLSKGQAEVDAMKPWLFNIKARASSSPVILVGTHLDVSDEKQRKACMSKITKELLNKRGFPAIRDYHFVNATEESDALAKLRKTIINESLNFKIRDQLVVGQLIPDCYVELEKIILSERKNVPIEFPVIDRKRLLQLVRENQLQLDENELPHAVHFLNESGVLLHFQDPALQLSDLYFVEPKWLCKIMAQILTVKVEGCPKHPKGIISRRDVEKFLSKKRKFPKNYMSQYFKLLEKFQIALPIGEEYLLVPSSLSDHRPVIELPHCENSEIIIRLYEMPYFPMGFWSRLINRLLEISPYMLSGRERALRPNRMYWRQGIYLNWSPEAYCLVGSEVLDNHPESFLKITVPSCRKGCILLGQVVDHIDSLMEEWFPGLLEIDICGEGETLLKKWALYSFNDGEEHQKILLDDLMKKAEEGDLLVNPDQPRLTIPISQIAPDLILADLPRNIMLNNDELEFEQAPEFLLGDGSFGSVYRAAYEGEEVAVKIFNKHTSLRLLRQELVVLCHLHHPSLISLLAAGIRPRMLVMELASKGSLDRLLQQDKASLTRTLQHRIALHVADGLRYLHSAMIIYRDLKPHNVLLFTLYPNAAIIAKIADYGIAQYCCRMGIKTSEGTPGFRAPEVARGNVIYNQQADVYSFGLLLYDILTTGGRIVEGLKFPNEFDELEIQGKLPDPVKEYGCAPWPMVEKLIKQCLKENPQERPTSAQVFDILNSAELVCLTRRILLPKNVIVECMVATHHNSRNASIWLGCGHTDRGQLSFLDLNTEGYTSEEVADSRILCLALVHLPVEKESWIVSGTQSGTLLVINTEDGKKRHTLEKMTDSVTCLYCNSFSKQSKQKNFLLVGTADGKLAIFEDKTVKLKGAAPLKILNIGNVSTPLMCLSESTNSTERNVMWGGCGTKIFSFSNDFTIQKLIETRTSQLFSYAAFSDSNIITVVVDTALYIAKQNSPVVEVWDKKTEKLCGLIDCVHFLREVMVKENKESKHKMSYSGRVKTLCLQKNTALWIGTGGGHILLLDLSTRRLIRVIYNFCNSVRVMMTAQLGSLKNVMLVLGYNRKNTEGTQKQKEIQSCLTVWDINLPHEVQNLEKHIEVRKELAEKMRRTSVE
Experimental: as §1, §2

[31] = target: T31, CK1_gamma2 (Homo sapiens, UniProt P78368)
T31 construct: purchased Invitrogen / ThermoFisher SelectScreen
Experimental: as §1, §2

[32] = target: T32, IKK_beta (Homo sapiens, UniProt O14920)
T32 construct: purchased Invitrogen / ThermoFisher SelectScreen
Experimental: as §1, §2

COc1cc(C(N)=O)nc(-c2cccc(C#C[C@]3(O)CCN(C)C3=O)c2)c1 [NIK SMI1]
inhibition at 1 µM [1]: 7.5% | inhibition at 1 µM [2]: 16% | inhibition at 1 µM [3]: 5% | inhibition at 1 µM [4]: -5.5% | inhibition at 1 µM [5]: 15.3% | inhibition at 1 µM [6]: 20.5% | inhibition at 1 µM [7]: 5% | inhibition at 1 µM [8]: 14% | inhibition at 1 µM [9]: 14% | inhibition at 1 µM [10]: -0.5% | inhibition at 1 µM [11]: 6.5% | inhibition at 1 µM [12]: 9.5% | inhibition at 1 µM [13]: 2% | inhibition at 1 µM [14]: 2% | inhibition at 1 µM [15]: 15% | inhibition at 1 µM [16]: 1.5% | inhibition at 1 µM [17]: 24.5% | inhibition at 1 µM [18]: -1.5% | inhibition at 1 µM [19]: 12% | inhibition at 1 µM [20]: 13.5% | inhibition at 1 µM [21]: 5.1% | % Inhibition [22]: > 75% and 96% | inhibition at 1 µM [23]: -5.5% | inhibition at 1 µM [24]: 16% | inhibition at 1 µM [25]: 7% | inhibition at 1 µM [26]: 7% | inhibition at 1 µM [27]: 31.5% | inhibition at 1 µM [28]: 4.5% | inhibition at 1 µM [29]: -0.5% | % Inhibition [30]: 82.1% | inhibition at 1 µM [30]: > 75% | inhibition at 1 µM [31]: 8.5% | inhibition at 1 µM [32]: 4.5%
